Test results taken from patent US20030232741A1, “Methods of treatment of glaucoma and other conditions mediated by NOS-2 expression via inhibition of the EGFR pathway” (Washington University, priority 2002, published 2003).
Entries after “also recorded” stand apart in the source; their conditions may differ.

Experiments:
Assay type in all cases: cell-based
[1] = tested on: NOS-2; assay: NOS-2 protein induction in human ONH astrocytes (immunoblot); conditions: for NOS-2 protein induced by elevated hydrostatic pressure: elevated hydrostatic pressure 48 hrs, AG18 40 μM, anti-EGFR antibody 1:20; for induction of NOS-2 in response to cytokines (protein/mRNA not specified): IL-1β/IFN-γ
Description: (§1) Twelve normal human (aged 22-51) eyes were obtained within 24 hrs after death. Lamina cribrosa astrocytes were obtained as described previously.^5 The second-passage cell cultures, which had over 95% cells positive for GFAP, were grown to 60-80% confluency and placed in serum free medium for one week before use.
(§2) Astrocytes grown on coverslips were placed under sterile, disposable polypropylene cylinders 6 cm high and 3 cm in diameter. Hydrostatic pressure was elevated by 5 cm of serum free medium, conditioned at 37° C. in a 5% CO2 humidified atmosphere. As control, the same number of cells on a coverslip was placed in 140 mm Petri dishes with 0.3 cm height of media in a volume equivalent to that used in the hydrostatic pressure experiments. Both pressurized and control cultures were maintained in a tissue culture incubator at 37° C. with a 5% CO2 humidified atmosphere for various periods. AG82 or AG18 (Calbiochem, Darmstadt, Germany) was added to the cell media 30 min before and during the period of exposure to elevated hydrostatic pressure or IL-1β/IFN-γ at final concentrations of 7 μM or 40 μM, respectively. SB202190 (Calbiochem, Darmstadt, Germany) was added to the cell media 30 min before and during the period of exposure to elevated hydrostatic pressure or IL-1β/IFN-γ at a final concentrations of 380 nM. SN-50 (BioMol, Plymouth Meeting, Pa.) was added to the cell media 30 min before and during the period of exposure to elevated hydrostatic pressure or IL-1β/IFN-γ at a final concentrations of 50 μg/ml. Monoclonal anti-EGFR antibody (Santa Cruz Biotechnology Inc, Santa Cruz, Calif.) which recognizes an EGF receptor cell surface epitope and is an antagonist of EGFR, was added to the cell media 12 hrs before and during the period of exposure to elevated hydrostatic pressure or EGF (100 ng/ml)(Sigma-Aldrich Corp., St. Louis, Mo.) at a working dilution of 1:20. Astrocytes were stimulated by the addition to the media of 200 U/ml human IFN-γ (Sigma-Aldrich Corp, Saint Louis, Mo.) and 10 ng/ml human IL-1β (Sigma-Aldrich Corp, Saint Louis, Mo.) for 12 or 48 hours.
NOS-2 immunoblot was as described previously.^5 For EGFR and p-EGFR immunoblot,^11 astrocytes were lysed in buffer (20 mm HEPES, pH 7.0, 10 mM KCI, 2 mM MgCl2, 0.5% Nonidet P40, 1 mM Na3VO4, 1 mM PMSF, 0.15 U ml^−1 aprotinin) and homogenized. The non-nuclear and nuclear fractions were separated by centrifugation at 1,500 g for 5 min to sediment the nuclei. The nuclear pellet was washed with the lysis buffer and resuspended in the same buffer containing 0.5 M NaCl to extract nuclear proteins. 20 μg protein of each non-nuclear fraction and 40 μg of each nuclear fraction were separated by 10% SDS-PAGE and transferred to a nitrocellulose membrane. Immunoblotting was performed with specific primary antibody against EGFR and p-EGFR followed by peroxidase-conjugated secondary antibody (Santa Cruz Biotechnology Inc, Santa Cruz, Calif.) and imaged by the enhanced chemiluminescence detection system (Amersham Life Science Inc, Arlington Heights, Ill.).

[2] = tested on: NOS-2 mRNA; assay: NOS-2 mRNA induction in human ONH astrocytes (semi-quantitative RT-PCR); conditions: AG82 7 μM, SB202190 380 nM, SN-50 50 μg/ml; for NOS-2 mRNA induced by elevated hydrostatic pressure: elevated hydrostatic pressure 12 hrs, AG18 40 μM
Description: as §1
as §2, with “Astrocytes were stimulated by the addition to the media of 200 U/ml human IFN-γ (Sigma-Aldrich Corp, Saint Louis, Mo.) and 10 ng/ml human IL-1β (Sigma-Aldrich Corp, Saint Louis, Mo.) for 12 or 48 hours.” left out
Semi-quantitative RT-PCR was performed as published previously.^8

[3] = biological target: T1, p-EGFR (Homo sapiens, UniProt P00533); assay: Immunocytochemistry for p-EGFR in cultured human ONH astrocytes exposed to elevated hydrostatic pressure; conditions: elevated hydrostatic pressure 10 min; AG82 7 μM added 30 min before and during
Description: Astrocytes grown on coverslips were placed under sterile, disposable polypropylene cylinders 6 cm high and 3 cm in diameter. Hydrostatic pressure was elevated by 5 cm of serum free medium, conditioned at 37° C. in a 5% CO2 humidified atmosphere. As control, the same number of cells on a coverslip was placed in 140 mm Petri dishes with 0.3 cm height of media in a volume equivalent to that used in the hydrostatic pressure experiments. Both pressurized and control cultures were maintained in a tissue culture incubator at 37° C. with a 5% CO2 humidified atmosphere for various periods. […]
As described previously,^5 cells grown on coverslips were fixed in 4% paraformaldehyde, incubated with specific primary antibodies against EGFR, p-EGFR or GFAP and appropriate fluorescent conjugated secondary antibodies (Molecular Probes Inc., Eugene, Ore), and visualized by fluorescence microscopy. […]

[4] = biological target: T1, p-EGFR; assay: Immunoblot for p-EGFR in nuclear and non-nuclear fractions of human ONH astrocytes exposed to elevated hydrostatic pressure; conditions: elevated hydrostatic pressure 10 min; AG82 7 μM added 30 min before and during
Description: NOS-2 immunoblot was as described previously.^5 For EGFR and p-EGFR immunoblot,^11 astrocytes were lysed in buffer (20 mm HEPES, pH 7.0, 10 mM KCI, 2 mM MgCl2, 0.5% Nonidet P40, 1 mM Na3VO4, 1 mM PMSF, 0.15 U ml^−1 aprotinin) and homogenized. The non-nuclear and nuclear fractions were separated by centrifugation at 1,500 g for 5 min to sediment the nuclei. […]

[5] = AG82 7 μM, SB202190 380 nM, SN-50 50 μg/ml

T1 sequence (P00533 25-1210): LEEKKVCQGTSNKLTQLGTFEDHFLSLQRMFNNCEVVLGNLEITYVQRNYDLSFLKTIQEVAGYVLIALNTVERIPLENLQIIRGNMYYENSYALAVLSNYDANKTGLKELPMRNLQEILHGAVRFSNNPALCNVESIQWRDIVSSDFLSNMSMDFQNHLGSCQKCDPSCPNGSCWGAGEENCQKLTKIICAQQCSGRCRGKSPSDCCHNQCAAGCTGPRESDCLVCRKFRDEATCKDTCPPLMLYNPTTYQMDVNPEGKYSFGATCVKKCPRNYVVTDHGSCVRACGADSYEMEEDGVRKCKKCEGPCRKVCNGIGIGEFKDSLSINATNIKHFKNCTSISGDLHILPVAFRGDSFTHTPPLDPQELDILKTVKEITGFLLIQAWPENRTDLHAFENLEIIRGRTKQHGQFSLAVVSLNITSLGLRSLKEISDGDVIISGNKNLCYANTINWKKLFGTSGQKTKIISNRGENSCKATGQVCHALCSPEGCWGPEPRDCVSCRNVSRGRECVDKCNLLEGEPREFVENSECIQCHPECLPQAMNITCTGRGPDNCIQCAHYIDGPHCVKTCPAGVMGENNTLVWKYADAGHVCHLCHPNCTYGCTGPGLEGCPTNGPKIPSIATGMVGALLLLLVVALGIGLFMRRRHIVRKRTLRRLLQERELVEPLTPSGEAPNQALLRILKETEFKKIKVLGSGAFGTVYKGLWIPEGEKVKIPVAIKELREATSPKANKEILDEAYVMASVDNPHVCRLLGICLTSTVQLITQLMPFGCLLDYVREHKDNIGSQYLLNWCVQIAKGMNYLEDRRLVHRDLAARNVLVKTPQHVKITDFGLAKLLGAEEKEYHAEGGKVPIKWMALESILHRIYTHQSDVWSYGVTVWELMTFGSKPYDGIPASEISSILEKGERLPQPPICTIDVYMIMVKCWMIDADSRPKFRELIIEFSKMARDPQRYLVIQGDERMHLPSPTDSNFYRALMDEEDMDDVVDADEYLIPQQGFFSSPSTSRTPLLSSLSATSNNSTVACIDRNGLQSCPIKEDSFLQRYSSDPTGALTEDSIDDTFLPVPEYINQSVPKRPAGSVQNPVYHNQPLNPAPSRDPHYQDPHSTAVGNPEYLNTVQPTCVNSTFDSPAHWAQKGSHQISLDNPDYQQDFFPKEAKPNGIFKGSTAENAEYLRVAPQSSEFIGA

EGF: epidermal growth factor, EGFR ligand (Sigma-Aldrich), added at 100 ng/ml (NSDSECPLSHDGYCLHDGVCMYIEALDKYACNCVVGYIGERCQYRDLKWWELR; UniProt P01133 971-1023, looked up)
NOS-2 protein level in astrocytes treated with EGF (Western blot and immunocytochemistry) ([1]; 100 ng/ml EGF in culture medium for 48 hrs, versus non-treated astrocytes): significantly increased; also recorded: increased labeling for NOS-2 and GFAP

N#CC(C#N)=Cc1ccc(O)c(O)c1 [AG18, α-Cyano-(3,4-dihydroxy)cinnamonitrile]
NOS-2 protein induced by elevated hydrostatic pressure [1, 5]: prevented both the increased protein level and the mRNA level of NOS-2; also recorded: significantly blocked the appearances of NOS-2 mRNA and protein | NOS-2 mRNA induced by elevated hydrostatic pressure [2]: prevented both the increased protein level and the mRNA level of NOS-2; also recorded: significantly blocked the appearances of NOS-2 mRNA and protein

Oc1ccc(-c2nc(-c3ccncc3)c(-c3ccc(F)cc3)[nH]2)cc1 [SD202190]
NOS-2 protein induced by cytokines ([1]; 200 U/ml IFN-γ and 10 ng/ml IL-1β, 48 hours, AG82 7 μM, SB202190 380 nM, SN-50 50 μg/ml): significantly blocked the appearance of NOS-2 protein in response to cytokine stimulation | induction of NOS-2 in response to cytokines (protein/mRNA not specified) ([1]; human optic nerve astrocytes): blocks the induction of NOS-2 in human optic nerve astrocytes in response to cytokines | NOS-2 mRNA induced by cytokines ([2]; 200 U/ml IFN-γ and 10 ng/ml IL-1β, 12 hours): affects the transcription of the NOS-2 gene to mRNA in response to cytokines

N#CC(C#N)=Cc1cc(O)c(O)c(O)c1 [AG82, α-Cyano-(3,4,5-trihydroxy)cinnamonitrile]
NOS-2 protein induced by elevated hydrostatic pressure [1, 5]: significantly prevented the increased protein level of NOS-2; also recorded: significantly blocked the appearance of NOS-2 protein in response to elevated hydrostatic pressure; also recorded: significantly blocked the appearances of NOS-2 mRNA and protein | induction of NOS-2 in response to cytokines (protein/mRNA not specified) ([1]; human optic nerve astrocytes): does not inhibit the induction of NOS-2 in response to cytokines | induction of NOS-2 in response to elevated hydrostatic pressure (protein/mRNA not specified) ([1]; human optic nerve astrocytes, elevated hydrostatic pressure): blocks induction of NOS-2 in response to elevated hydrostatic pressure | immunocytochemical labeling for p-EGFR in response to elevated hydrostatic pressure [3]: blocked the increased immunocytochemical labeling for p-EGFR in the cytoplasm in response to elevated hydrostatic pressure and, most notably, there was no nuclear labeling for p-EGFR; also recorded: prevents the nuclear labeling for p-EGFR | tyrosine phosphorylation of EGFR (p-EGFR) in non-nuclear and nuclear extracts by immunoblot [4]: significantly blocked the tyrosine phosphorylation of EGFR in both non-nuclear and nuclear extracts; also recorded: completely prevents the increase in p-EGFR in both nuclear and non-nuclear fractions | NOS-2 mRNA induced by elevated hydrostatic pressure [2]: almost completely prevented; also recorded: affects the transcription of the NOS-2 gene to mRNA in response to elevated hydrostatic pressure; also recorded: significantly blocked the appearances of NOS-2 mRNA and protein
